Data set [1] relates to peripheral blood mononuclear cells (PBMCs). Kind of data set: Cell viability assay in non-malignant peripheral blood mononuclear cells. Conditions: 72 hours. The data set is classed as cell-based, human. Here is the method: The effect of pharmacological Hsp70 inhibition on cell viability was analyzed after 72 hours of treatment in both non-malignant (mononuclear cells from the peripheral blood) and malignant lymphocytes (multiple myeloma cells). The mononuclear cells were separated from the peripheral blood of healthy donors by Ficoll-Hypaque density gradient centrifugation. The human cell line INA-6 represents a well-established model for multiple myeloma. The percentage of viable and apoptotic cell fractions was assessed using an annexin V-FITC/propidium iodide (PI) staining kit (Bender MedSystems, Vienna, Austria) according to manufacturer's instructions. In brief, cells were washed in PBS, incubated for 10 min in 100 ml binding buffer (10 mM HEPES/NaOH, pH 7.4, 140 mM NaCl, 2.5 mM CaCl2) containing 2.5 ml annexin V-FITC mix and 1 mg/ml propidium iodide (PI), subsequently diluted with 100 ml binding buffer and analyzed by flow cytometry (FACSCalibur/CELLQuest; Becton Dickinson, Heidelberg, Germany). […] To establish kill curves, concentrations of the tested compounds were titrated, and the measured viable cell fractions were further analyzed using the Prism Calculation Software (GraphPad Software Inc., La Jolla, USA). […]

In a further data set the test system is HSP90. Kind of data set: Western blot analysis of HSP90 expression in INA-6 cells. The data set is classed as cell-based, human. Conditions: INA-6, 0.6 μM, with Z-VAD-FMK 50 μM. Here is the method:
Western Blot Analysis. Protein expression levels were determined with Western blotting procedures (M. Chatterjee, et al., Blood 2002, 100, 3311-3318). Following separation by SDS-PAGE, proteins were transferred onto nitrocellulose membranes (Schleicher & Schuell, Dassel, Germany) and stained with antibodies against Hsp72, Hsp73, Hsp90 (all from Enzo Life Science, Lörrach, Germany), AIF, lamin A, caspases 9 and 3, PARP (all from Santa Cruz, Heidelberg, Germany). An anti-α tubulin antibody (Sigma, Deisenhofen, Germany) was employed to assess equal loading. Secondary antibodies used were anti-rat (Enzo Life Science), anti-rabbit and anti-mouse (both from GE Healthcare, Little Chalfont, UK). […] The heat shock proteins HSP72 and HSP73 critically interact with HSP90 in order to mediate an essential chaperone function for a multitude of proteins including various signaling intermediates. According to an established HSP72/73-dependent client protein signature and its role for survival in MM, the proposed anti-HSP72/73 effect of trans-7b in the INA-6 multiple myeloma (MM) cell line model was evaluated. […] Lysates were cleared by centrifugation, measured by quantitative protein assay (Bio-Rad, München, Germany) and subjected to SDS gel electrophoresis. […]
A general note: A western blot detects proteins with antibodies after separation by electrophoresis.

For the compound `COc1ccc(C2C(C(=O)Nc3cccc(C)n3)c3ccccc3C(=O)N2c2ccccc2)cc1` (stereo not drawn) [trans-7b, trans-3-(4-Methoxyphenyl)-N-(6-methylpyridin-2-yl)-1-oxo-2-phenyl-1,2,3,4-tetrahydroisoquinoline-4-carboxamide], in data set [1], the “cytotoxic effect in primary PBMCs (viability)” value is reported as “lack any cytotoxic effect even in higher micromolar concentrations”. The HSP90 expression entry with HSP90 is “remains unchanged”.

The values above are taken from patent publication US9975853B2, “Tetrahydroisoquinolinone derivatives and their use in the inhibition of the HSP70 protein” (Julius-Maximilians-Universitaet Wuerzburg, priority 2014, dated 2018).
